Test [1] deals with HCT116 FOP control reporter cell line. Put plainly: HCT116 FOPFlash control reporter assay (FOP control vector, non-functional TCF elements). The test is classed as cell-based. Conditions: Homo sapiens, HCT-116, 36 h, HCT116 FOP control reporter cells, 36 hours incubation, luciferase expression. From the text: In a parallel approach, HCT116 cells were cotransfected with the FOP control vector and pcDNA3. The FOP vector is identical to the TOP construct, but it contains instead of functional TCF elements a randomized, non-functional sequence. For this transfection a stable transfected cell line was generated as well.
On the technique in general: In a reporter assay the amount or activity of a reporter protein is the signal.

For test [2], the system named is constitutive active colorectal cancer cell (CRC) Wnt pathway. Put plainly: HCT116 TOPFlash cellular reporter assay (Super TopFlash luciferase), constitutive active Wnt pathway. The test is classed as cell-based. The conditions noted are these: Homo sapiens, HCT-116, 36 h, HCT116 TOP reporter cells, 36 hours incubation, luciferase expression. As to the method:
In order to discover and characterize small molecules which inhibit the constitutive active colorectal cancer cell (CRC) Wnt pathway, a cellular reporter assay was employed. […] Stable transfectants were generated by cotransfection with pcDNA3 and selection of stable transfected cells with 1 mg/ml G418.

Some results are limits rather than exact numbers.

The values that follow come from patent US10130633B2, “Compounds” (BAYER PHARMA AKTIENGESELLSCHAFT, priority 2013, dated 2018).

What is called IC50 is the concentration needed to halve the response being measured. Read a low IC50 as greater potency. As to `CC(C(=O)Nc1cc(C(=O)Nc2ccc(-c3ccc(N(C)C)cc3)nc2)ccc1OC(F)(F)F)N1CCOCC1` (stereo not drawn) [Example 114, N-{6-[4-(dimethylamino)phenyl]pyridin-3-yl}-3-{[2-(morpholin-4-yl)propanoyl]amino}-4-(trifluoromethoxy)benzamide], the results for the IC50 in test [1] and in test [2] were no less than 50000 nM and 46 nM, respectively.
Turning to `O=C(CN1CCOCC1)Nc1cc(NC(=O)c2noc(-c3ccccc3)n2)ccc1OC(F)(F)F` [Example 121, N-{3-[(morpholin-4-ylacetyl)amino]-4-(trifluoromethoxy)phenyl}-5-phenyl-1,2,4-oxadiazole-3-carboxamide], the IC50 in test [1] is no less than 50000 nM; in test [2] it was 825 nM.
For `O=C(CN1CCOCC1)Nc1cc(C(=O)Nc2cnc(-c3ccccc3)s2)ccc1OC(F)(F)F` [Example 122, 3-[(morpholin-4-ylacetyl)amino]-N-(2-phenyl-1,3-thiazol-5-yl)-4-(trifluoromethoxy)benzamide], in that order: no less than 50000 nM and 202 nM.
On to `Cn1nc(C(=O)Nc2ccc(OC(F)(F)F)c(NC(=O)CN3CCOCC3)c2)cc1-c1ccccc1` [Example 123, 1-methyl-N-{3-[(morpholin-4-ylacetyl)amino]-4-(trifluoromethoxy)phenyl}-5-phenyl-1H-pyrazole-3-carboxamide], for which the concentration for half-maximal inhibition (IC50) is no less than 50000 nM in test [1] and 560 nM in test [2].
Consider `O=C(CN1CCOCC1)Nc1cc(C(=O)Nc2nc(-c3ccccc3)no2)ccc1OC(F)(F)F` [Example 125, 3-[(morpholin-4-ylacetyl)amino]-N-(3-phenyl-1,2,4-oxadiazol-5-yl)-4-(trifluoromethoxy)benzamide], for which the IC50 in test [1] was no less than 50000 nM; in test [2], 1700 nM.
For the compound `O=C(CN1CCOCC1)Nc1cc(C(=O)Nc2nnc(-c3ccccc3F)s2)ccc1OC(F)(F)F` [Example 127, N-[5-(2-fluorophenyl)-1,3,4-thiadiazol-2-yl]-3-[(morpholin-4-ylacetyl)amino]-4-(trifluoromethoxy)benzamide], the values for the IC50 in test [1] and in test [2] were no less than 50000 nM and 885 nM, respectively.
Consider `CC(C(=O)Nc1cc(C(=O)Nc2nnc(-c3ccccc3)s2)ccc1C(F)(F)F)N1CCOCC1` (stereo not drawn) [Example 128, 3-{[2-(morpholin-4-yl)propanoyl]amino}-N-(5-phenyl-1,3,4-thiadiazol-2-yl)-4-(trifluoromethyl)benzamide], for which the IC50 is no less than 50000 nM in test [1] and 710 nM in test [2].
In the case of `CC(C(=O)Nc1cc(C(=O)Nc2nnc(-c3ccccc3)s2)ccc1C(F)(F)F)N1CCN(C)CC1` (stereo not drawn) [Example 129, 3-{[2-(4-methylpiperazin-1-yl)propanoyl]amino}-N-(5-phenyl-1,3,4-thiadiazol-2-yl)-4-(trifluoromethyl)benzamide], the IC50 was no less than 50000 nM in test [1] and 900 nM in test [2].
Regarding `COc1ccc(NC(=O)c2nnc(-c3ccccc3)s2)cc1NC(=O)CN1CCOCC1` [Example 130, N-{4-methoxy-3-[(morpholin-4-ylacetyl)amino]phenyl}-5-phenyl-1,3,4-thiadiazole-2-carboxamide], the values for the IC50 in test [1] and in test [2] were no less than 50000 nM and 318 nM, respectively.
For the compound `CN1CCN(C2(C(=O)Nc3cc(C(=O)Nc4ccc(-c5ccccc5F)nc4)ccc3OC3CC3)CC2)CC1` [Example 135, 4-(cyclopropyloxy)-N-[6-(2-fluorophenyl)pyridin-3-yl]-3-({[1-(4-methylpiperazin-1-yl)cyclopropyl]carbonyl}amino)benzamide], the IC50 is no less than 50000 nM in test [1] and 84.8 nM in test [2].
Taken in the same sequence, the figures for `CC1CN(CC(=O)Nc2cc(C(=O)Nc3ccc(-c4ccccc4F)nc3)ccc2OC(F)(F)F)CCN1C` (stereo not drawn) [Example 137, 3-{[(3,4-dimethylpiperazin-1-yl)acetyl]amino}-N-[6-(2-fluorophenyl)pyridin-3-yl]-4-(trifluoromethoxy)benzamide] were 20000 nM and 272 nM.
For `CSc1ccc(C(=O)Nc2ccc(-c3ccccc3F)nc2)cc1NC(=O)CN1CCOCC1` [Example 138, N-[6-(2-fluorophenyl)pyridin-3-yl]-4-(methylsulfanyl)-3-[(morpholin-4-ylacetyl)amino]benzamide], in that order: no less than 50000 nM and 150 nM.
Taken in the same sequence, the figures for `CS(=O)(=O)c1ccc(C(=O)Nc2ccc(-c3ccccc3F)nc2)cc1NC(=O)CN1CCOCC1` [Example 139, N-[6-(2-fluorophenyl)pyridin-3-yl]-4-(methylsulfonyl)-3-[(morpholin-4-ylacetyl)amino]benzamide] were 25000 nM and 500 nM.
As to `CN(C)C1(C(=O)Nc2cc(C(=O)Nc3ccc(-c4ccccc4F)nc3)ccc2OC2CC2)CC1` [Example 140, 4-(cyclopropyloxy)-3-({[1-(dimethylamino)cyclopropyl]carbonyl}amino)-N-[6-(2-fluorophenyl)pyridin-3-yl]benzamide], the figures for the half-maximal inhibitory concentration (IC50) in test [1] and in test [2] were 10000 nM and 293 nM, respectively.
`O=C(Cn1cccn1)Nc1cc(C(=O)Nc2ccc(-c3ccccc3F)nc2)ccc1OC1CC1` [Example 141, 4-(cyclopropyloxy)-N-[6-(2-fluorophenyl)pyridin-3-yl]-3-[(1H-pyrazol-1-ylacetyl)amino]benzamide]: the IC50 in test [1] was no less than 50000 nM; in test [2], 680 nM.
Taken in the same sequence, the figures for `CC(C(=O)Nc1cc(C(=O)Nc2ccc(-c3ccccc3F)nc2)ccc1C(C)(C)C)N1CCOCC1` (stereo not drawn) [Example 142, 4-tert-butyl-N-[6-(2-fluorophenyl)pyridin-3-yl]-3-{[2-(morpholin-4-yl)propanoyl]amino}benzamide] were 7150 nM and 118 nM.
With `CC(C(=O)Nc1cc(C(=O)Nc2ncc(-c3ccccc3)s2)ccc1C(C)(C)C)N1CCOCC1` (stereo not drawn) [Example 143, 4-tert-butyl-3-{[2-(morpholin-4-yl)propanoyl]amino}-N-(5-phenyl-1,3-thiazol-2-yl)benzamide], the IC50 in test [1] is no less than 50000 nM; in test [2] it was 204 nM.
For `Cc1ccccc1-c1nnc(NC(=O)c2ccc(OC(F)(F)F)c(NC(=O)CN3CCN(C)CC3)c2)s1` [Example 144, N-[5-(2-methylphenyl)-1,3,4-thiadiazol-2-yl]-3-{[(4-methylpiperazin-1-yl)acetyl]amino}-4-(trifluoromethoxy)benzamide], in that order: no less than 50000 nM and 195 nM.
Taken in the same sequence, the figures for `Cc1cccc(-c2nnc(NC(=O)c3ccc(OC(F)(F)F)c(NC(=O)CN4CCN(C)CC4)c3)s2)c1` [Example 145, N-[5-(3-methylphenyl)-1,3,4-thiadiazol-2-yl]-3-{[(4-methylpiperazin-1-yl)acetyl]amino}-4-(trifluoromethoxy)benzamide] were no less than 50000 nM and 152 nM.
For the compound `COc1cccc(-c2nnc(NC(=O)c3ccc(OC(F)(F)F)c(NC(=O)CN4CCN(C)CC4)c3)s2)c1` [Example 146, N-[5-(3-methoxyphenyl)-1,3,4-thiadiazol-2-yl]-3-{[(4-methylpiperazin-1-yl)acetyl]amino}-4-(trifluoromethoxy)benzamide], the IC50 in test [1] was no less than 50000 nM; in test [2] it was 365 nM.
Consider `CN1CCN(CC(=O)Nc2cc(C(=O)Nc3nnc(-c4ccc(Cl)cc4)s3)ccc2OC(F)(F)F)CC1` [Example 147, N-[5-(4-chlorophenyl)-1,3,4-thiadiazol-2-yl]-3-{[(4-methylpiperazin-1-yl)acetyl]amino}-4-(trifluoromethoxy)benzamide], for which the IC50 in test [1] was no less than 50000 nM; in test [2], 2200 nM.
